Measurements reported in publication PMC12339328, “Therapeutic effect and mechanism of gigantol on hyperuricemia” (Frontiers in Endocrinology, 2025).
Where “and” joins values, the source holds several entries; their conditions need not be identical. Equal values may be shown once. Entries after “also recorded” stand apart in the source; their conditions may differ. Read-outs that look alike come from different tables or passages of the source.

How the values were obtained:
XOD = target: T1, XOD (Mus musculus, UniProt Q00519); type: in vivo; details: HUA mice, vs model group
T1 construct: XOD activity in the supernatant of the liver tissues was measured; from tissue; host or cells: liver of male KM mice (hyperuricemia model, potassium oxonate)
T1 sequence (Q00519 whole entry): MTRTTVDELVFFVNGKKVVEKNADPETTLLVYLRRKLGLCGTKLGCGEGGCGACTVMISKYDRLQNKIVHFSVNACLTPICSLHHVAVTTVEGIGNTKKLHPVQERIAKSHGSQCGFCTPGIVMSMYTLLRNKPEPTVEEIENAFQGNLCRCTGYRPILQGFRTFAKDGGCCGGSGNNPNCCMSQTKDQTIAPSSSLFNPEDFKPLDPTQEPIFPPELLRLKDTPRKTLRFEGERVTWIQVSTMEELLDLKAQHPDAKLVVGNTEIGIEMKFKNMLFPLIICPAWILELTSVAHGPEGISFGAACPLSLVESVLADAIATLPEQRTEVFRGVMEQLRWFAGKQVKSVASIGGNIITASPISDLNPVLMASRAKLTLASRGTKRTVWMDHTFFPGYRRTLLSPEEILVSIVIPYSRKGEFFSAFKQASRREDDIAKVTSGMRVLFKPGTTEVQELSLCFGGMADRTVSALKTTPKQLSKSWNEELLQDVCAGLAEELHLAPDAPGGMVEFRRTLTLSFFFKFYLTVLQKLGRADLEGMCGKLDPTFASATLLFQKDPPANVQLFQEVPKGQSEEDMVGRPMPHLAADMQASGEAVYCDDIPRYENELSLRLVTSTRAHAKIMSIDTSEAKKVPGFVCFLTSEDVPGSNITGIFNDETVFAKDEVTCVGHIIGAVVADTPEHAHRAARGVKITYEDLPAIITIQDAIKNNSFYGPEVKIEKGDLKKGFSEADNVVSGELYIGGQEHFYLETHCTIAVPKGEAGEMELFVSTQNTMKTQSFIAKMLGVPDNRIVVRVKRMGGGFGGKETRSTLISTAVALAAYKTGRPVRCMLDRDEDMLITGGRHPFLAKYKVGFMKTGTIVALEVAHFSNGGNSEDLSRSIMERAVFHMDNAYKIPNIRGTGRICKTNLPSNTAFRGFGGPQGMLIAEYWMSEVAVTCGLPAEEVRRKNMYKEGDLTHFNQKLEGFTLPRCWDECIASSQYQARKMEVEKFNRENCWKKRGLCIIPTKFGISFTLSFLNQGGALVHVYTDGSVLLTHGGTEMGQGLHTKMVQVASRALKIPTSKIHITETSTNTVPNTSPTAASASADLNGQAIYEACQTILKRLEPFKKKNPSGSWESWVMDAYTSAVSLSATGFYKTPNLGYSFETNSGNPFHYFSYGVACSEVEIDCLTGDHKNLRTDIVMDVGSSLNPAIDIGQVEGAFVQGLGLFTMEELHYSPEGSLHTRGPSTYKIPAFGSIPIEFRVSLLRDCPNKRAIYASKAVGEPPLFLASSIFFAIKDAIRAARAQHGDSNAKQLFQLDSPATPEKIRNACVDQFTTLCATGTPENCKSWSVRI

OAT3 = OAT3 protein expression in kidney of HUA mice (Western blot); details: vs model group
NLRP3 [1] = experiment: NLRP3 content in serum and kidney of HUA mice (ELISA); type: in vivo; details: gigantol low, medium, high dose intragastric, vs model group
Description: Blood obtained from mice in each group was centrifuged at 3,000 r/min for 15 min in a low-temperature high-speed centrifuge. Then, the serum was separated, and the levels of UA, CRE, and BUN in the serum were measured by the kits. The levels of TNF-α, IL-1β, IL-6, and NLRP3 in serum were detected by ELISA kits. Liver and kidney tissues were homogenized by adding ice-cold saline, and homogenates were centrifuged at 12,000 r/min for 10 min. XOD activity in the supernatant of the liver tissues was measured, and the levels of TNF-α, IL-1β, IL-6, and NLRP3 in the supernatant of the kidney tissues were measures by ELISA kits.

OAT1 = OAT1 protein expression in kidney of HUA mice (Western blot); details: gigantol medium-dose and high-dose groups (10, 20 mg/kg), vs model group, p < 0.01
Caspase-1 = Caspase-1 protein expression in HK-2 cells (Western blot); details: for CASPASE / β (reference protein) ratio / CASPASE protein expression, band value: HK-2, replicates 1-3
NLRP3 [2] = experiment: NLRP3 content in HK-2 HUA cell model (ELISA); type: cell-based, human; details: gigantol 25, 50, 100 µmol/L, dose-dependent
Description: HK-2 cells were treated as described above. The supernatant of the medium was collected, and the levels of proinflammatory cytokines (TNF-α, IL-6, and IL-1β) and the NLRP3 inflammasome component in the supernatant were detected using commercially available ELISA kits according to the manufacturers’ protocols.

GLUT9 = GLUT9 protein expression in HK-2 cells (Western blot); details: for GLUT (GLUT9) / β (reference protein) ratio / GLUT (GLUT9) protein expression, band value: HK-2, replicates 1-3; for GLUT9 protein expression in HK-2 cells: HUA cell model, gigantol 25, 50, 100 µmol/L, especially high-dose (p < 0.001), vs model
HK-2 cells = experiment: UA level in HK-2 HUA cell model; type: cell-based, human; details: adenosine + XOD induced; gigantol 25, 50, 100 μmol/L; p < 0.001

5-[2-(3-hydroxy-5-methoxyphenyl) ethyl]-2-methoxyphenol [gigantol]
XOD activity in mice liver (XOD; gigantol high dose (20 mg/kg), p < 0.001): inhibited
XOD activity in mice liver (XOD; gigantol low and middle doses (5, 10 mg/kg), p > 0.05): no significant difference
OAT3 protein expression in kidney (OAT3; gigantol low-dose group (5 mg/kg)): not in the low-dose group
OAT3 protein expression in kidney (OAT3; gigantol medium-dose and high-dose groups (10, 20 mg/kg), p < 0.05): increased
NLRP3 level in kidney (NLRP3 [1]): decreased
NLRP3 level in serum (NLRP3 [1]): decreased
OAT1 protein expression in kidney (OAT1): increased
CASPASE / β (reference protein) ratio (Caspase-1; 中 = gigantol 50 µmol/L): 0.976 and 0.8978 and 0.9502
CASPASE protein expression, band value (Caspase-1; 中 = gigantol 50 µmol/L): 169.696 and 166.728 and 180.371
CASPASE / β (reference protein) ratio (Caspase-1; 低 = gigantol 25 µmol/L): 0.8128 and 1.007 and 1.064
CASPASE protein expression, band value (Caspase-1; 低 = gigantol 25 µmol/L): 134.57 and 189.238 and 191.281
CASPASE / β (reference protein) ratio (Caspase-1; 高 = gigantol 100 µmol/L): 0.7864 and 0.8188 and 0.8437
CASPASE protein expression, band value (Caspase-1; 高 = gigantol 100 µmol/L): 146.411 and 160.261 and 164.281
Caspase-1 protein level in HK-2 cells (Caspase-1; HUA cell model, gigantol 25, 50, 100 µmol/L, vs model group): significantly reduced; also recorded: decreased significantly
NLRP3 in HK-2 cells (NLRP3 [2]): significantly reduced
GLUT (GLUT9) / β (reference protein) ratio (GLUT9; 中 = gigantol 50 µmol/L): 0.824 and 0.7786 and 0.7289
GLUT (GLUT9) protein expression, band value (GLUT9; 中 = gigantol 50 µmol/L): 143.264 and 144.598 and 138.372
GLUT (GLUT9) / β (reference protein) ratio (GLUT9; 低 = gigantol 25 µmol/L): 0.9479 and 0.8166 and 0.8642
GLUT (GLUT9) protein expression, band value (GLUT9; 低 = gigantol 25 µmol/L): 156.942 and 153.38 and 155.361
GLUT (GLUT9) / β (reference protein) ratio (GLUT9; 高 = gigantol 100 µmol/L): 0.7095 and 0.5035 and 0.629
GLUT (GLUT9) protein expression, band value (GLUT9; 高 = gigantol 100 µmol/L): 132.094 and 98.555 and 122.472
GLUT9 protein expression in HK-2 cells (GLUT9): significantly decreased
GLUT9 protein expression in HK-2 cells (GLUT9; listed as Gigantol): decreased
UA level in HK-2 cells (HK-2 cells): suppressed
